Experimental data taken from US8778871B2 (Takeda Pharmaceutical Company Limited, priority 2004, dated 2014).
Non-standard residues stand in square brackets, D forms with d. Residues, ends and D or L forms follow the SMILES beside them. No end group written: not given here. Arg(Me) = CNC(=N)NCCC[C@H](N)C(=O)O; 4Pal = N[C@@H](Cc1ccncc1)C(=O)O; Abu = CC[C@H](N)C(=O)O; azaGly = NNC(=O)O

Assays:
Type in all cases: cell-based
hOT7T175 [1] = molecular target: T1, hOT7T175 (Homo sapiens, UniProt Q969F8, L364H); assay: Intracellular Ca ion level-increasing activity using FLIPR (180 seconds; specific activity to Metastin (1-54)); conditions: hOT7T175/CHO, relative to Metastin (1-54) = 1
T1 construct: expressed in transfected cells
T1 sequence (Q969F8 whole entry L364H): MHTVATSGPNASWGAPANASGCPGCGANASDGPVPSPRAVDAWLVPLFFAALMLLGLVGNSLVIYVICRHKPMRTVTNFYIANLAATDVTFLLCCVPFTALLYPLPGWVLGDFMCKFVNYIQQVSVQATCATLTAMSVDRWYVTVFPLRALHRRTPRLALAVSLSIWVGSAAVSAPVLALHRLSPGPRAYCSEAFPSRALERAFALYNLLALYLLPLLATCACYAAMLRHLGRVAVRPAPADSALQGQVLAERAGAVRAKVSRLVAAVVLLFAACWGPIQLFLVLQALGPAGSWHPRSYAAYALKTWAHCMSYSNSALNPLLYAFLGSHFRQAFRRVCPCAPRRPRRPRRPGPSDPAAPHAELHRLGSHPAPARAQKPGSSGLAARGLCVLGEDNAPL

hOT7T175 [2] = molecular target: T1, hOT7T175; conditions: hOT7T175/CHO, FLIPR, evaluation for 40 seconds after initiation of the reaction
Description: The intracellular Ca ion level-increasing activity was measured using FLIPR as in TEST EXAMPLE 2.

hOT7T175 [3] = molecular target: T2, hOT7T175 (Homo sapiens, UniProt Q969F8); assay: Intracellular Ca ion level-increasing activity using FLIPR (180 seconds; specific activity to Metastin (1-54)); conditions: hOT7T175/CHO, change in intracellular calcium ion level for 180 seconds, Tables 21-23
T2 construct: expressed in transfected cells
T2 sequence (Q969F8 whole entry L364H): as above

| Molecule | Specific Act. (intracellular Ca ion level-increasing activity, specific activity to Metastin (1-54)) (hOT7T175 [1]) | Specific Act. (EC50/MS10 EC50) (hOT7T175 [2]) | intracellular Ca ion level-increasing activity [specific activity to Metastin (1-54)] (hOT7T175 [3]) |
| --- | --- | --- | --- |
| CC(C)C[C@H](NC(=O)CNC(=O)[C@H](Cc1ccccc1)NC(=O)[C@H](CO)NC(=O)[C@H](CC(N)=O)NC(=O)[C@H](Cc1c[nH]c2ccccc12)NC(=O)[C@H](CC(N)=O)NC(=O)[C@@H](N)Cc1ccc(O)cc1)C(=O)N[C@@H](CCCNC(=N)N)C(=O)N[C@@H](Cc1ccccc1)C(N)=O [Compound No. 3, reference compound] | 10 | – | – |
| CC(C)C[C@H](NC(=O)CNC(=O)[C@H](Cc1ccccc1)NC(=O)[C@H](CO)NC(=O)[C@H](CC(N)=O)NC(=O)[C@H](Cc1c[nH]c2ccccc12)NC(=O)[C@H](CC(N)=O)NC(=O)[C@@H](N)Cc1ccc(O)cc1)C(=O)N[C@@H](CCCNC(=N)N)C(=O)N[C@@H](Cc1ccncc1)C(N)=O [Compound No. 17] (H-YNWNSFGLR[4Pal]-NH2) | 5 | – | – |
| COc1ccc(C[C@H](NC(=O)[C@H](CCCNC(=N)N)NC(=O)[C@H](CC(C)C)NC(=O)CNC(=O)[C@H](Cc2ccccc2)NC(=O)[C@H](CO)NC(=O)[C@H](CC(N)=O)NC(=O)[C@H](Cc2c[nH]c3ccccc23)NC(=O)[C@H](CC(N)=O)NC(=O)[C@@H](N)Cc2ccc(O)cc2)C(N)=O)cc1 [Compound No. 18] (H-YNWNSFGLRY(Me)-NH2) | 1 | – | – |
| CC(C)C[C@H](NC(=O)CNC(=O)[C@H](Cc1ccccc1)NC(=O)[C@H](CO)NC(=O)[C@H](CC(N)=O)NC(=O)[C@H](Cc1c[nH]c2ccccc12)NC(=O)[C@H](CC(N)=O)NC(=O)[C@@H](N)Cc1ccc(O)cc1)C(=O)N[C@@H](CCCNC(=N)N)C(=O)N[C@@H](Cc1ccccc1F)C(N)=O [Compound No. 19] | 2 | – | – |
| CC(=O)N[C@@H](Cc1ccc(O)cc1)C(=O)N[C@@H](CC(N)=O)C(=O)N[C@@H](Cc1c[nH]c2ccccc12)C(=O)N[C@@H](CC(N)=O)C(=O)N[C@@H](CO)C(=O)N[C@@H](Cc1ccccc1)C(=O)NCC(=O)N[C@@H](CC(C)C)C(=O)N[C@@H](CCCNC(=N)N)C(=O)N[C@@H](Cc1ccccc1)C(N)=O [Compound No. 30] | 10 | – | – |
| CC(C)C[C@H](NC(=O)CNC(=O)[C@H](Cc1ccccc1)NC(=O)[C@H](CO)NC(=O)[C@H](CC(N)=O)NC(=O)[C@H](Cc1c[nH]c2ccccc12)NC(=O)[C@H](CC(N)=O)NC(=O)[C@H](Cc1ccc(O)cc1)NC(=O)OCC1c2ccccc2-c2ccccc21)C(=O)N[C@@H](CCCNC(=N)N)C(=O)N[C@@H](Cc1ccccc1)C(N)=O [Compound No. 31] | 2 | – | – |
| CC(C)C[C@H](NC(=O)CNC(=O)[C@H](Cc1ccccc1)NC(=O)[C@H](CO)NC(=O)[C@H](CC(N)=O)NC(=O)[C@H](Cc1c[nH]c2ccccc12)NC(=O)[C@H](CC(N)=O)NC(=O)[C@H](Cc1ccc(O)cc1)NC(=O)[C@H](CC(N)=O)NC(=O)[C@@H]1CCCN1C(=O)[C@@H](N)CC(C)C)C(=O)N[C@@H](CCCNC(=N)N)C(=O)N[C@@H](Cc1ccccc1)C(N)=O [Compound No. 32, reference compound] | 10 | – | – |
| [dY][dF]ASF[azaGly]L[Arg(Me)]W-NH2 [Compound No. 514] | – | 0.7 | 10 |
| [dY][dW]ASF[azaGly]L[Arg(Me)]W-NH2 [Compound No. 503] | – | 0.4 | 10 |
| [dY][dW]ATF[azaGly]L[Arg(Me)]W-NH2 [Compound No. 511] | – | 0.5 | 10 |
| [dY][dW][Abu]SF[azaGly]L[Arg(Me)]W-NH2 [Compound No. 513] | – | 0.4 | 20 |
